The results in this text go back to patent publication US7109193B2, “Tricyclic diazepines tocolytic oxytocin receptor antagonists” (Wyeth, priority 2001, dated 2006).

T1 sequence (P37288 whole entry): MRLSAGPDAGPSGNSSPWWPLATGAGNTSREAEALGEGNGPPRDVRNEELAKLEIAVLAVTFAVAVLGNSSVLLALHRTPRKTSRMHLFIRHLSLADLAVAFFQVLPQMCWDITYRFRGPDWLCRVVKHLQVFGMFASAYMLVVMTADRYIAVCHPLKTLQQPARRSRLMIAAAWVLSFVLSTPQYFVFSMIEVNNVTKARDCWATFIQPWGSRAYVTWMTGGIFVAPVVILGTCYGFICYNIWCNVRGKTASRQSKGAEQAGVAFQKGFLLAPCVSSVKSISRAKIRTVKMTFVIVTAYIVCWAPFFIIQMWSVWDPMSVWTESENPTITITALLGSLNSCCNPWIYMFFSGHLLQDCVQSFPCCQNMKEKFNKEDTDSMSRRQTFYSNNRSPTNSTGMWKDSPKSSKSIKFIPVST

The assay addresses T1, human vasopressin V1a receptor subtype (Homo sapiens, UniProt P37288).
T1 construct: host or cells: CHO cells (pZeoSV vector for the Thibonnier line)
The experiment in a line: Vasopressin binding in Chinese Hamster Ovary cell membranes expressing human vasopressin V1a subtype receptors. As to conditions: 100 nM, CHO cell membranes, [3H]Manning ligand, values without parentheses. The method, then: Vasopressin Binding in Chinese Hamster Ovary Cell Membranes Expressing Human Vasopressin V1a Subtype Receptors
The trypsin is removed by aspiration and the cells dislodged by tapping. Cell Culture medium (e.g. 30 mL for 1:30 split) is immediately added and mixed well to inactivate trypsin. 1 mL of detached cells is added to new culture flasks containing fresh cell culture medium (e.g., into 25 mL per T-150 flask), and mixed gently. The cells are incubated at 37° C. in 5% CO2. The medium is changed at 3 to 4 days interval (or as appropriate). […] All steps are done under sterile conditions. B. Membrane Preparation: The cells are washed twice gently with Hank's Balanced Salt solution (e.g,. use 10 mL per T-150 flask). […] The contents are transferred to centrifuge tubes (50 mL) kept in an ice bath. All subsequent steps are done at 4° C. The tubes are centrifuged at 300×g for 15 min (1380 rpm on SORVAL, Model RT6000D, using the rotor for 50 mL tubes). The supernatant is discarded and the cells suspended in homogenizing buffer(10 mM Tris-HCl containing 0.25 M sucrose and 1 mM EDTA, pH 7.4) ensuring that the volume of the buffer is about ten times the volume of the cell pellet. The cells are pooled into a centrifuge tube (50 mL) and homogenized with a Polytron at setting 6 for 10 sec. The homogenate is transferred into a Potter-Elvjehm homogenizer and homogenized with 3 strokes. The homogenate is centrifuged at 1500×g for 10 min at 4° C. (3100 rpm using SORVAL, model RT6000D, using the rotor for 50 mL tubes). The pellet is discarded. The supernatant is centrifuged at 100,000×g for 60 min. at 4° C. (Beckman L8-80M ultracentrifuge; spin at 37,500 rpm with rotor type 70 Ti for 50 mL tubes; 38,000 rpm with type 80Ti for 15 mL tubes; or 35,800 rpm with rotor type 45Ti). The supernantant is discarded and the pellet suspended in 3 to 4 mL of Tris buffer (50 mM TRIS-HCl, pH 7.4). The protein content is estimated by the Bradford or Lowry method. The volume of the membrane suspension is adjusted with the membrane buffer (50 mM Tris-HCl containing 0.1% BSA and 0.1 mM PMSF) to give 3.0 mg/mL (or as appropriate) of protein. The membranes are aliquoted and stored at −70° C. C. Radioligand Binding Assay: In wells of a 96-well format microtiter plate, is added 90, 110 or 130 μL (to make up a final volume of 200 μL) of assay buffer containing 50 mM of Tris-HCl (pH 7.4), BSA (heat inactivated, protease-free), […], 1 mg % aprotinin, 1 mg % leupeptin, 2 mg % 1,10-phenanthroline, 10 mg % trypsin inhibitor, and 0.1 mM PMSF. The inhibitors are added on the day of the experiment. The components are mixed at room temperature, and then kept in ice bath following adjustment of the pH to 7.4. […] 20 μL of 50% DMSO is added for Manning and other peptide ligands and the assay buffer volume is adjusted accordingly. To each well is added 50 μL of frozen membrane suspension thawed immediately prior to use and diluted in the assay buffer to the required concentration (equivalent to 25 to 50 μg of protein/well as needed). 20 μL of 8 nM [^3H]Manning ligand in the assay buffer, prepared just before use, is added, and incubated at room temperature for 60 min. shaking the plate on a mechanical shaker for the first 15 min. The incubation is stopped by rapid filtration of the plate contents followed by wash with ice-cold buffer (50 mM Tris-HCl, pH 7.4) using a cell harvester (Tomtek and Printed filtermat-B filter paper). The filter paper is thoroughly dried (7–12 min. in a microwave oven) and impregnated with MeltiLex B/H melt-on scintillation wax sheets and the radioactivity counted in a betaplate scintillation counter.
Binding data is either reported as percent inhibition at a certain concentration or if an IC50 was calculated, as a nanomolar concentration.
As for “{10-[(2,2′-Dimethoxy[1,1′-biphenyl]-4-yl)carbonyl]-10,11-dihydro-5H-pyrrolo[2,1-c][1,4]benzodiazepin-3-yl}(4-isopropyl-1-piperazinyl)methanone [Example 244]”, the “V1a % inhibition @ 100 nM” value came to 44%.

With `Cc1cc(C(=O)N2Cc3ccc(C(=O)NCCCn4ccnc4)n3Cc3ccccc32)ccc1-c1ccccc1C(F)(F)F` [Example 135, N-[3-(1H-Imidazol-1-yl)propyl]-10-{[2-methyl-2′-(trifluoromethyl)[1,1′-biphenyl]-4-yl]carbonyl}-10,11-dihydro-5H-pyrrolo[2,1-c][1,4]benzodiazepine-3-carboxamide], the inhibition at 0.1 µM is 2%.

Regarding `COc1ccccc1-c1ccc(C(=O)N2Cc3ccc(C(=O)N4CCC(N5CCCCC5)CC4)n3Cc3ccccc32)cc1OC` [Example 119, {10-[(2,2′-Dimethoxy-[1,1′-biphenyl]-4-yl)carbonyl]-10,11-dihydro-5H-pyrrolo[2,1-c][1,4]benzodiazepin-3-yl}[4-(1-piperidinyl)-1-piperidinyl]methanone], the inhibition at 0.1 µM amounted to 9%.

With `COc1cc(C(=O)N2Cc3ccc(C(=O)N4CCC(N5CCCCC5)CC4)n3Cc3ccccc32)ccc1-c1cccc2ccccc12` [Example 118, {10-[3-Methoxy-4-(1-naphthyl)-benzoyl]-10,11-dihydro-5H-pyrrolo[2,1-c][1,4]benzodiazepin-3-yl}[4-(1-piperidinyl)-1-piperidinyl]methanone], the inhibition at 0.1 µM worked out at 14%.

As to `COc1ccccc1-c1ccc(C(=O)N2Cc3ccc(C(=O)N4CCC(N5CCCC5)CC4)n3Cc3ccccc32)cc1C` [Example 137, {10-[(2′-Methoxy-2-methyl[1,1′-biphenyl]-4-yl)carbonyl]-10,11-dihydro-5H-pyrrolo[2,1-c][1,4]benzodiazepin-3-yl}[4-(1-pyrrolidinyl)-1-piperidinyl]methanone], the inhibition at 0.1 µM is 4%.

For `COc1ccccc1-c1ccc(C(=O)N2Cc3ccc(C(=O)NCCCn4ccnc4)n3Cc3ccccc32)cc1` [Example 126, N-[3-(1H-Imidazol-1-yl)propyl]-10-[(2′-methoxy[1,1′-biphenyl]-4-yl)carbonyl]-10,11-dihydro-5H-pyrrolo[2,1-c][1,4]benzodiazepine-3-carboxamide], the inhibition at 0.1 µM was 9%.

For `COc1cc(C(=O)N2Cc3ccc(C(=O)NCCCn4ccnc4)n3Cc3ccccc32)ccc1-c1cccc2ccccc12` [Example 131, N-[3-(1H-Imidazol-1-yl)propyl]-10-[3-methoxy-4-(1-naphthyl)benzoyl]-10,11-dihydro-5H-pyrrolo[2,1-c][1,4]benzodiazepine-3-carboxamide], the inhibition at 0.1 µM turned out to be 8%.

Regarding `COc1cccc(-c2ccc(C(=O)N3Cc4ccc(C(=O)N5CCN(CCN(C)C)CC5)n4Cc4ccccc43)cc2C)c1` [Example 199, {4-[2-(Dimethylamino)ethyl]-1-piperazinyl{}10-[(3′-methoxy-2-methyl[1,1′-biphenyl]-4-yl)carbonyl]-10,11-dihydro-5H-pyrrolo[2,1-c][1,4]benzodiazepin-3-yl}methanone], the “V1a % inhibition @ 100 nM” value is 23%.

Take `COc1cc(C(=O)N2Cc3ccc(C(=O)N4CCC(N5CCCC5)CC4)n3Cc3ccccc32)ccc1-c1cccc2ccccc12` [Example 144, {10-[3-Methoxy-4-(1-naphthyl)benzoyl]-10,11-dihydro-5H-pyrrolo[2,1-c][1,4]benzodiazepin-3-yl}[4-(1-pyrrolidinyl)-1-piperidinyl]methanone]: the inhibition at 0.1 µM is -1%.

As to `Cc1ccccc1-c1ccc(C(=O)N2Cc3ccc(C(=O)N4CCC(N5CCCC5)CC4)n3Cc3ccccc32)cc1` [Example 141, {10-[(2′-Methyl[1,1′-biphenyl]-4-yl)carbonyl]-10,11-dihydro-5H-pyrrolo[2,1-c][1,4]benzodiazepin-3-yl}[4-(1-pyrrolidinyl)-1-piperidinyl]methanone], the inhibition at 0.1 µM is -3%.

As to `COc1cc2c(cc1OC)N(C(=O)c1ccc(-c3ccccc3C(F)(F)F)c(C)c1)Cc1ccc(C(=O)N3CCC(=O)CC3)n1C2` [Example 14, 7,8-Dimethoxy-10-{[2-methyl-2′-(trifluoromethyl)-[1,1′-biphenyl]-4-yl]carbonyl}-[(10,11-dihydro-5H-pyrrolo[2,1-c][1,4]benzodiazepin-3-yl)carbonyl]-4-piperidinone], the “V1a % inhibition @ 100 nM” value is given as −16%.

Consider `Cc1ccccc1-c1ccc(C(=O)N2Cc3ccc(C(=O)N4CCC[C@H]4CN4CCCC4)n3Cc3ccccc32)cc1` [Example 264, {10-[(2′-Methyl[1,1′-biphenyl]-4-yl)carbonyl]-10,11-dihydro-5H-pyrrolo[2,1-c][1,4]benzodiazepin-3-yl}[(2S)-2-(1-pyrrolidinylmethyl)pyrrolidinyl]methanone], for which the “V1a % inhibition @ 100 nM” value was 67%.

Take `COc1cccc(-c2cc(OC)c(C(=O)N3Cc4ccc(C(=O)N5CCC(N6CCCCC6)CC5)n4Cc4ccccc43)cc2Cl)c1` [Example 117, {10-[(6-Chloro-3-methoxy-3′-methoxy[1,1′-biphenyl]-4-yl)carbonyl]-10,11-dihydro-5H-pyrrolo[2,1-c][1,4]benzodiazepin-3-yl}[4-(1-piperidinyl)-1-piperidinyl]methanone]: the inhibition at 0.1 µM was -3%.

With `COc1cccc(-c2ccc(C(=O)N3Cc4ccc(C(=O)N(C)CCCN(C)C)n4Cc4ccccc43)cc2OC)c1` [Example 108, 10-[(2,3′-Dimethoxy[1,1′-biphenyl]-4-yl)carbonyl]-N-[3-(dimethylamino)propyl]-N-methyl-10,11-dihydro-5H-pyrrolo[2,1-c][1,4]benzodiazepine-3-carboxamide], the inhibition at 0.1 µM worked out at 52%.

Turning to `COc1cccc(-c2ccc(C(=O)N3Cc4ccc(C(=O)NCCC5CCCN5C)n4Cc4ccccc43)cc2C)c1` (stereo not shown) [Example 164, 10-[(3′-Methoxy-2-methyl[1′1′-biphenyl]-4-yl)carbonyl]-N-[2-(1-methyl-2-pyrrolidinyl)ethyl]-10,11-dihydro-5H-pyrrolo[2,1-c][1,4]benzodiazepine-3-carboxamide], the “V1a % inhibition @ 100 nM” value worked out at 23%.

For `COc1ccccc1-c1ccc(C(=O)N2Cc3ccc(C(=O)NCCN4CCCCC4)n3Cc3ccccc32)cc1` [Example 152, 10-[(2′-Methoxy[1,1′-biphenyl]-4-yl)carbonyl]-N-[2-(1-piperidinyl)ethyl]-10,11-dihydro-5H-pyrrolo[2,1-c][1,4]benzodiazepine-3-carboxamide], the inhibition at 0.1 µM is 23%.

As for `COc1cc(-c2ccccc2C)c(Cl)cc1C(=O)N1Cc2ccc(C(=O)NCCN3CCCCC3)n2Cc2ccccc21` [Example 155, 10-[(6-Chloro-3-methoxy-2′-methyl[1,1′-biphenyl]-4-yl)carbonyl]-N-[2-(1-piperidinyl)ethyl]-10,11-dihydro-5H-pyrrolo[2,1-c][1,4]benzodiazepine-3-carboxamide], the inhibition at 0.1 µM is 0%.

In the case of `O=C(c1ccc2n1Cc1ccccc1N(C(=O)c1ccc(-c3cccc4ccccc34)cc1Cl)C2)N1CCC(N2CCCCC2)CC1` [Example 121], the “V1a % inhibition @ 100 nM” value was 0%.

On to `COc1cc(C(=O)N2Cc3ccc(C(=O)NCCN4CCCCC4)n3Cc3ccccc32)ccc1-c1ccccc1C` [Example 154, 10-[(2-Methoxy-2′-methyl[1,1′-biphenyl]4-yl)carbonyl]-N-[2-(1-piperidinyl)ethyl]-10,11-dihydro-5H-pyrrolo[2,1-c][1,4]benzodiazepine-3-carboxamide], for which the inhibition at 0.1 µM came out at 39%.
